Assay results taken from US20170165282A1, “USE OF BETA-NICOTINAMIDE MONONUCLEOTIDE IN PREPARATION OF DRUGS FOR PREVENTING AND TREATING ARTERIOSCLEROSIS AND CARDIO-CEREBROVASCULAR DISEASES, AND DRUGS CONTAINING THE SAME” (BONTAC BIO-ENGINEERING (SHENZHEN) CO., LTD, priority 2015, published 2017).

What was measured:
[1] = system: patients having cardio-cerebrovascular diseases resulting from arteriosclerosis; assay: Clinical trial in patients with cardio-cerebrovascular diseases resulting from arteriosclerosis; assay type: in vivo, human; conditions: for Total effective rate: excluding the withdrawing patients
Text: 300 patients (male:female 1:1, aged 35-78 years and 57.5 years on average, and having a course of disease of the shortest 1.5 years, the longest 7 years, and 4.6 years on average) diagnosed as having cardio-cerebrovascular diseases resulting from arteriosclerosis were selected at random as subjects for clinical observation. The patients were assigned to a group A, a group B, and a group C at random, each group having 100 patients.
Group A: The patients were orally administered with NMN at a dosage of 10 mg/kg body weight before or after meals every day, and the diet was controlled as desired.
Group B: The patients were orally administered with NMN at a dosage of 10 mg/kg body weight and with NR at a dosage of 2 mg/kg body weight before or after meals every day, and the diet was controlled as desired.
Group C: The patients were intramusculary injected with NMN at a dosage of 10 mg/kg body weight and with NR at a dosage of 3 mg/kg body weight before or after meals every day, and the diet was controlled as desired.
(1) Obvious effectiveness: The health is built up, the body is powerful, the blood lipid and blood pressure drop to normal levels, the palpitation, chest pain, chest tightness, headache, dizziness, decreased vision, decreased memory, insomnia and dreamful sleep, and other clinical symptoms are obvious alleviated.
(2) Effectiveness: The health is built up, the blood lipid and blood pressure drop slightly, the palpitation, chest pain, chest tightness, headache, dizziness, decreased vision, decreased memory, insomnia and dreamful sleep, and other clinical symptoms are alleviated to some extent.
(3) Ineffectiveness: There is no obvious improvement in the clinical symptoms.

[2] = system: arteriosclerosis (lesion of the aorta) in guinea pigs fed on high-fat diet; assay: Guinea pig high-fat diet arteriosclerosis model, lesion area of aorta (Sudan IV staining); assay type: in vivo
Procedure: 80 SPF healthy guinea pigs (female:male 1:1) having a body weight of 250-300 g, were assigned to 8 groups at random, each group having 10 animals. The groups include:
(1) a normal control group, fed on basal diet, and allowed to free access to water during experiment;
(2) a high fat control group, fed on high-fat diet, and allowed to free access to water during experiment;
(3) a high fat prevention group, fed on high-fat diet, dosed with 10 mg NMN/kg body weight by gavage every day, and allowed to free access to water during experiment;
(4) a low-dose NMN group, fed on high-fat diet, dosed with 0.1 mg NMN/kg body weight by gavage every day from week 7, and allowed to free access to water during experiment;
(5) a medium-dose NMN group, fed on high-fat diet, dosed with 10 mg NMN/kg body weight by gavage every day from week 7, and allowed to free access to water during experiment;
(6) a high-dose NMN group, fed on high-fat diet, dosed with 20 mg NMN/kg body weight by gavage every day from week 7, and allowed to free access to water during experiment;
(7) NMN+NR gavage group: fed on high-fat diet, dosed with 10 mg NMN/kg body weight and 1 mg NR/kg body weight by gavage every day from week 7, and allowed to free access to water during experiment.
(8) NMN+NR injection group: fed on high-fat diet, dosed with 10 mg NMN/kg body weight and 5 mg NR/kg body weight by intramuscular injection every day from week 7, and allowed to free access to water during experiment.
The formulation of the high-fat diet includes 83% basal diet, 2% cholesterol, and 15% lard oil.
At the end of week 10, all the experimental animals was fasted (allowed to access to water) for 12 hrs and then sacrificed. The aorta was isolated, dissected longitudinally along the midline of the anterior wall, and stained with Sudan IV. […] The lesion area pathologically measured and the total endangium area were quantified, and the degree of arteriosclerosis was expressed by percentages of the lesion area relative to the total endangium area of the aorta.
Statistical analysis: All the experimental data is analyzed by SPSS13.0 Statistics software. The measurement data is expressed as x±s, and t test is applied to check the statistical significance. Where P<0.05, there is statistical significance.

[3] = Group A: oral NMN 10 mg/kg every day, after 1 month
[4] = Group A: oral NMN 10 mg/kg every day, after 1 month, 100 patients

## NC(=O)c1ccc[n+]([C@@H]2O[C@H](COP(=O)([O-])O)[C@@H](O)[C@H]2O)c1 [NMN, β-nicotinamide mononucleotide]
[1]; Group A: oral NMN 10 mg/kg body weight every day
  Time after administration at which patients with mild disease are cured: 7 days
[1]; [3]
  Patients showing obvious effectiveness: 67 out of 100 patients
  Total effective rate: 96%
[1]; [4]
  Patients showing effectiveness: 28 patients
  Patients showing ineffectiveness: 4 patients
[1]; Group A: oral NMN 10 mg/kg every day, after 1 month, listed as β-nicotinamide mononucleotide
  Total effective rate: up to 96%
[2]; high fat prevention group: high-fat diet, 10 mg NMN/kg body weight by gavage every day, end of week 10, x±s
  Rate of lesion area of aorta (%): 13 ± 2%
[2]; high-dose: high-fat diet, 20 mg NMN/kg by gavage every day from week 7, end of week 10, x±s
  Rate of lesion area of aorta (%): 18 ± 4%
[2]; low-dose: high-fat diet, 0.1 mg NMN/kg by gavage every day from week 7, end of week 10, x±s
  Rate of lesion area of aorta (%): 58 ± 5%
[2]; medium-dose: high-fat diet, 10 mg NMN/kg by gavage every day from week 7, end of week 10, x±s
  Rate of lesion area of aorta (%): 27 ± 3%
